Data published in US11597708B2, “Inhibitors of heat shock factors and uses thereof” (HSF Pharmaceuticals SA, priority 2016, dated 2023).

What was measured:
HSF1 levels = target: T1, HSF1 levels (Homo sapiens, UniProt Q00613); assay: Anti-HSF1 western blot of HeLa cell extracts; format: cell-based; settings: same extracts of exposed, heat-treated HeLa cells
T1 construct: functionally linked to an hsp70b promoter and therefore controlled by endogenous HSF1; endogenous in cells; host or cells: HeLa cells / HeLa-derived cell line Z74
T1 sequence (Q00613 whole entry): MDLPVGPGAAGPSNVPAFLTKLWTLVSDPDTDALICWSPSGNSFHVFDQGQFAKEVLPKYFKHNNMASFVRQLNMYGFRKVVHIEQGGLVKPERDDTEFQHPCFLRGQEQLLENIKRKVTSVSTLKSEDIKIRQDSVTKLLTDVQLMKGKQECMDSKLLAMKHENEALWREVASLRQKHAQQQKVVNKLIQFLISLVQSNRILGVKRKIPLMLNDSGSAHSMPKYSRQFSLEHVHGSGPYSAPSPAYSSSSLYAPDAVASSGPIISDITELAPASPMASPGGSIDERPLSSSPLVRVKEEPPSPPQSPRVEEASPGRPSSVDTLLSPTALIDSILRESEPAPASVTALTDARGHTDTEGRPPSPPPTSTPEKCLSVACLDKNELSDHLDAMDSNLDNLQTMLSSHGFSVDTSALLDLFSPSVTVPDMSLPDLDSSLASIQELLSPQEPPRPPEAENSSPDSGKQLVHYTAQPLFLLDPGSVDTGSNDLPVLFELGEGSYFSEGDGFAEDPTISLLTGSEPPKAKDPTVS
Procedure: (§1) FIG. 3. (A) HeLa cell cultures were mock-treated (−) or exposed for 2 hours to the indicated concentrations of compounds 058 or 115 and then heat-treated (HS) at 43° C. for 30 min. Top panels: HSF1 DNA-binding activities in cell extracts were determined by EMSA. The panels show the major HSF1-HSE DNA probe complexes. Middle panels: HSF1 levels assayed by western blot (WB). GAPDH served as a loading control. Bottom panels: HSF1 homooligomerization. Aliquots of extracts were EGS-treated and then analyzed by anti-HSF1 WB. The positions of pre-stained molecular weight marker proteins (MW, in thousands) are indicated to the right. Asterisks indicate the positions of monomeric and trimeric HSF1, respectively. (B) Relative occupancy of the hspa1a promoter was assessed by chromatin immunoprecipitation assay of HeLa cell cultures mock-treated (−) or treated with compounds 058 or 115 at 12.5 μM concentrations for 2 hours and then heat-treated (HS) at 43° C. for 30 min. Chromatin fragments were immunoprecipitated using HSF1 antibodies or an F4/80 LR (control) antibody, and associated hspa1a promoter DNA was quantified by real-time PCR. […]

[1] = target: T2, HSF1 DNA-binding activity (Homo sapiens, UniProt Q00613); assay: EMSA of extracts of heat-treated HeLa cells exposed to compound; format: cell-based; settings: HeLa cells exposed to different concentrations, heat-treated 43° C./30 min; effect of IHSF 058 at 25 or 50 μM
T2 construct: functionally linked to an hsp70b promoter and therefore controlled by endogenous HSF1; endogenous in cells; host or cells: HeLa cells / HeLa-derived cell line Z74
T2 sequence (Q00613 whole entry): as above
Procedure: as §1

HSF1 oligomerization = target: T3, HSF1 oligomerization (Homo sapiens, UniProt Q00613); assay: EGS cross-linking and anti-HSF1 western blot (HSF1 oligomerization); format: cell-based; settings: extracts of exposed, heat-treated HeLa cells
T3 construct: functionally linked to an hsp70b promoter and therefore controlled by endogenous HSF1; endogenous in cells; host or cells: HeLa cells / HeLa-derived cell line Z74
T3 sequence (Q00613 whole entry): as above
Procedure: FIG. 3. (A) HeLa cell cultures were mock-treated (−) or exposed for 2 hours to the indicated concentrations of compounds 058 or 115 and then heat-treated (HS) at 43° C. for 30 min. Top panels: HSF1 DNA-binding activities in cell extracts were determined by EMSA. The panels show the major HSF1-HSE DNA probe complexes. Middle panels: HSF1 levels assayed by western blot (WB). GAPDH served as a loading control. Bottom panels: HSF1 homooligomerization. Aliquots of extracts were EGS-treated and then analyzed by anti-HSF1 WB. The positions of pre-stained molecular weight marker proteins (MW, in thousands) are indicated to the right. Asterisks indicate the positions of monomeric and trimeric HSF1, respectively. (B) Relative occupancy of the hspa1a promoter was assessed by chromatin immunoprecipitation assay of HeLa cell cultures mock-treated (−) or treated with compounds 058 or 115 at 12.5 μM concentrations for 2 hours and then heat-treated (HS) at 43° C. for 30 min. Chromatin fragments were immunoprecipitated using HSF1 antibodies or an F4/80 LR (control) antibody, and associated hspa1a promoter DNA was quantified by real-time PCR.
We also investigated whether the compounds were capable of interfering with HSF1 oligomerization. Aliquots of the extracts were subjected to cross-linking with EGS (ethylene glycolbis(succinimidylsuccinate)) and then re-analyzed by anti-HSF1 WB. […]

[2] = system: KD 13 (HeLa-derived, HSF1 siRNA); assay: Alamar Blue assay of HSF1-deficient KD 13 line versus KD control cells; format: cell-based, human; settings: 96 hours exposure, different concentrations
Procedure: FIG. 7. (A) Upper panel: HSF1 levels in cultures of KD control and KD13 cells as assayed by WB. Lower panel: number of alive KD control and KD13 cells after 1-4 days of culture as determined by Trypan Blue dye exclusion. […] Cell viability was assayed by Alamar Blue assay.
The most severely HSF1-deficient lines grew slowly. FIG. 7 reports on the properties of one such line, KD 13, which was compared to control lentivirus-transduced cells (KD control). The WB in FIG. 7A (upper panel) confirms that the KD 13 line is essentially devoid of HSF1. The lower panel compares growth of the cell line with that of the control cells (the graph showing numbers of Trypan Blue-excluding (live) cells after 1-4 days of culture). We conclude that the KD 13 line has partially overcome its HSF1 dependency.

HSF1-ATF1 interaction = target: T4, HSF1-ATF1 interaction (Homo sapiens, UniProt Q00613); assay: Anti-FLAG immunoprecipitation of FLAG-tagged HSF1 and WB (HSF1-ATF1 interaction); format: cell-based; settings: HeLa-derived line expressing FLAG-tagged HSF1, heat-treated 30 min at 43° C.
T4 construct: expressed in transfected cells; host or cells: HeLa-derived cell line stably expressing HSF1-FLAG
T4 sequence (Q00613 whole entry): as above
Source text: Recruitment of HSF1 to target promoters in response to a stress is mediated by ATF1/CREB. Takii, R. et al. (2015) Mol. Cell. Biol. 35: 11-25. ATF1/CREB regulates the stress-induced HSF1 transcription complex that includes BRG1 chromatin-remodeling complex and p300/CBP. The former complex promotes an active chromatin state in the promoters, whereas p300/CBP accelerates the shutdown of HSF1 DNA-binding activity as well as stabilizes HSF1 against proteasomal degradation during recovery from stress. To assess the effects of the IHSF on the assembly of the transcription complex, use was made of a HeLa-derived cell line that stably expresses a C-terminally FLAG-tagged HSF1. Cultures were heat-treated for 30 min at 43° C. in the presence or absence of IHSF 115, extracts were prepared, and tagged HSF1 was immunoprecipitated using an anti-FLAG antibody.

SMILES	HSF1 levels (anti-HSF1 western blot) (HSF1 levels)	heat-induced HSF1 DNA-binding activity (EMSA) [1]	HSF1 oligomerization (EGS cross-linking, anti-HSF1 WB) (HSF1 oligomerization)	resistance of KD 13 line versus control lentivirus-transduced cells to killing [2]	HSF1-ATF1 interaction (co-immunoprecipitation, WB) (HSF1-ATF1 interaction)
CCOC(=O)/C=C/C(=O)Nc1ncc(-c2cccnc2)s1 [IHSF 058, (E)-3-(5-Pyridm-3-yl-thiazol-2-ylcarbamoyl)-acrylic acid ethyl ester]	reduced levels of HSF1	important reductions	No impairment of oligomerization	–	–
CN(C(=O)/C=C/C1=NCCCO1)c1ncc(-c2cccnc2)s1 [IHSF 115, (E)-3-(5,6-Dihydro-4H-[1,3]oxazin-2-yl)-N-methyl-N-(5-pyridin-3-yl-thiazol-2-yl)-acrylamide]	did not affect HSF1 levels	failed to have a similar effect	No impairment of oligomerization	more resistant to killing	dramatically reduced
